The source of these data is publication PMC10708527, “Salazinic Acid and Norlobaridone from the Lichen Hypotrachyna cirrhata: Antioxidant Activity, α-Glucosidase Inhibitory and Molecular Docking Studies” (Molecules, 2023).

This experiment concerns the target T1, intestinal α-glucosidase.
T1 construct: crude rat intestinal enzyme
The experiment in a line: crude enzyme inhibition, p-nitrophenyl-α-D-glucopyranoside hydrolysis at […] nm. The class given is biochemical, Rattus norvegicus.

On to `CCCCCc1cc(O)cc2c1Oc1cc(O)cc(C(=O)CCCC)c1C(=O)O2` [compound 12, norlobaridone], for which the “Intestinal α-Glucosidase % Inhibition (IC50)” value was found to be 1.41 ± 0.01 µg/mL.
Take `COC(=O)c1c(C)cc(OC(=O)c2c(C)cc(O)c(C=O)c2O)c(C)c1O` [compound 13, atranorin]: the “Intestinal α-Glucosidase % Inhibition (IC50)” value is recorded as 2.07 ± 0.01 µg/mL.
For the compound `C[C@H]1O[C@H](O[C@H]2[C@H](O)[C@@H](O)[C@@H](O[C@H]3[C@H](O)[C@@H](O)C(O)O[C@@H]3CO)O[C@@H]2CO)[C@H](O)[C@@H](O)[C@@H]1N[C@H]1C=C(CO)[C@@H](O)[C@H](O)[C@H]1O` (some centres unmarked) [acarbose, reference compound], the “Intestinal α-Glucosidase % Inhibition (IC50)” value is recorded as 2.58 ± 0.85 µg/mL.
Under `COc1c(C)c(O)cc(C)c1C(=O)O` [compound 18, iso-rhizonic acid] stands 1.99 ± 0.03 µg/mL; under `Cc1cc(O)c(C=O)c2c1C(=O)Oc1c(CO)c(O)c3c(c1O2)C(O)OC3=O` (centres unmarked) [compound 11, salazinic acid], 1.62 ± 0.07 µg/mL.
